# Test results taken from PubChem BioAssay AID2305 (GlaxoSmithKline (GSK), 2010).
# pIC50: −log10 of the molar value.
# Test system: P. falciparum 3D7 growth, pLDH absorbance
# Assay: P. falciparum 3D7 growth inhibition, dose response, strain 3D7 (AID 2305)
row,SMILES,pIC50
1,O=C(/C=C/c1ccc(Cl)c(Cl)c1)NC1CCC(N2CCC(c3c[nH]c4ccc(O)cc34)CC2)CC1 (stereo unspecified),6.04
2,OCC1CCN(Cc2ccc(-c3ccc(-c4nc5ccc(C(F)(F)F)cc5[nH]4)cc3)cc2)CC1,6.15
3,Cc1ccccc1C1CCN(C2CCC(NC(=O)/C=C/c3ccc(C(F)(F)F)cc3)CC2)CC1 (stereo unspecified),5.98
4,Cc1cc(NC(=O)[C@H](CC2CCCCC2)Nc2ccc(C#N)c3ccccc23)ccc1F,6.17
5,Cc1cccc2[nH]c(-c3ccc(-c4cccc(CN5CCCC(O)C5)c4)s3)nc12 (stereo unspecified),6.03
6,Cn1cc(C2CCN(CCCCCNC(=O)/C=C/c3ccc(Cl)c(Cl)c3)CC2)c2cc(O)ccc21,6.03
7,O=C(Nc1ccccc1)Nc1cccc(-c2ccc(-c3nc4ccc(C(F)(F)F)cc4[nH]3)cc2)c1,6.64
8,C1=CN(Cc2ccccc2)C=CC1=C1C=Nc2ccccc21,6.12
9,CCN1CCC(N(CCCCCCc2ccc(C(F)(F)F)cc2)C(=O)Cn2c(CCc3cccc(F)c3F)cc(=O)c3ccccc32)CC1,6.03
10,CNC(=O)C(NC(=O)c1ccccc1C(=O)OC)c1ccccc1 (stereo unspecified),6.25
11,COc1cc2nc(NCCc3ccccc3)nc(NC(C)c3ccccc3)c2cc1OC (stereo unspecified),6.55
12,CCCCCCN1CCC(CNCc2cccc([N+](=O)[O-])c2)CC1,6.14
13,O=C(Nc1ccc(-c2csc(-c3nc4ccccc4[nH]3)c2)cc1)Nc1ccc(F)c(F)c1F,6.48
14,Cc1[nH]c(C)c(-c2ccc(C#Cc3ccc(F)cc3F)cc2)c(=O)c1Br,7.52
15,CC1(CCCCN2CCC(c3c[nH]c4cnccc34)CC2)C(=O)Nc2cccc(Cl)c21 (stereo unspecified),6.06
16,C=CCNS(=O)(=O)c1ccc(NC(=O)C(C)Oc2ccc([N+](=O)[O-])cc2)cc1 (stereo unspecified),5.91
17,Cc1cccc2[nH]c(-c3ccc(-c4cccc(NC(=O)Nc5ccc6c(c5)OCO6)c4)cc3)nc12,6.13
18,O=C(NCCCc1ccccc1)c1ccc(O)c(-c2cc(Cl)cc(Cl)c2)c1,6.24
19,O=C(Nc1ccc(Cl)c(Cl)c1)Nc1ccc2nccc(N3CCN(Cc4ccccc4)CC3)c2c1,6.80
20,O=C(Nc1ccc(-c2ccccc2)c(OCCN2CCNCC2)c1)c1ccc(-c2ccc(Cl)cc2)cc1,6.11
21,COc1ccccc1C1CC(c2ccccc2)=NN1C(=O)c1ccccc1 (stereo unspecified),6.52
22,c1ccc2c(CNCCCN3CCN(CCCNCc4c5ccccc5cc5ccccc45)CC3)c3ccccc3cc2c1,6.74
23,CN1CCC(NC(=O)c2cccc(Nc3cc(Nc4cccc(Br)c4)ncn3)c2)CC1,6.00
24,CCc1sc(-c2cc(Cl)ccc2OC)nc1C(=O)NCCN1CCCCC1,6.03

row,SMILES,pIC50
1,O=C(C=Cc1ccc(Cl)c(Cl)c1)NCCCCCN1CCC(CCNC(=O)C(c2ccccc2)c2ccccc2)CC1,6.00
2,CN1CCN(Cc2ccc(-c3ccc4ncnc(Nc5ccc(OCc6ccccc6)cc5)c4c3)o2)CC1,6.16
3,CC(Cc1ccc(NC(=O)COc2ccc(CC(C)NCCc3cccc(Cl)c3)cc2)cc1)NCCc1cccc(Cl)c1 (stereo unspecified),7.10
4,Cc1ccc(F)c(C(=O)Nc2cccc(-c3nn4ccccc4c3-c3ccnc(Nc4cccc(F)c4)n3)c2)c1F,5.98
5,COc1cc(C=CC(=O)NC2CCC(CN3CCC(c4c[nH]c5ccccc45)CC3)CC2)cc(OC)c1 (stereo unspecified),6.09
6,COc1cccc(C(=O)Nc2nonc2-c2ccc(OC)c(OC)c2)c1,6.10
7,Cc1cc(NN=Cc2ccc(F)cc2)c2cc(F)ccc2n1,6.19
8,Cc1ccc(Cc2c(N)nc3nc(N)nc(N)c3c2C)cc1,6.72
9,Cc1cccc2[nH]c(-c3cccc(-c4ccc(NC(=O)C(C)CN5CCOCC5)cc4)c3)nc12 (stereo unspecified),6.16
10,CCCn1cc2c(ccc3nc(N)nc(N)c32)n1,7.10
11,COc1ccc(-c2cccc(NC(=O)c3cccs3)c2)cc1CN1CCCN(C)CC1,6.15
12,CC1CCC2(CC1)N=C(N)N=C(N)N2OCc1ccc(Br)c2ccccc12 (stereo unspecified),6.66
13,CCN(CC)CCN(Cc1ccc(-c2ccc(C(F)(F)F)cc2)cc1)C(=O)Cn1c(SCc2ccc(F)cc2)nc(=O)c2sccc21,6.00
14,N#Cc1ccc(N2CCN(Cc3cccc(-c4cccc(-c5nc6ccc(C(F)(F)F)cc6[nH]5)c4)c3)CC2)nc1,6.02
15,CCc1sc(-c2ccc(C(C)(C)C)cc2)nc1C(=O)NCCCN1CCCC1=O,6.00
16,CC1CCCC(NC(=O)CCOc2ccccc2)C1 (stereo unspecified),6.06
17,CN(C)c1nc2cc(-n3cnc4cc(-c5ccc(Cl)cc5)sc4c3=O)ccc2n1CCCN1CCCC1,6.07
18,Cc1cc(NC(=O)N=C(N)N)ccc1Cl,6.15
19,COc1ccc2nccc(NC(=O)N3CCC(NCc4cc5c(F)ccc(F)c5[nH]4)CC3)c2n1,6.66
20,COc1ccc2nccc(N3CCC(CCNCc4ccc5c(n4)NC(=O)CO5)CC3)c2c1,6.15
21,Cc1ccc(Nc2nc(C)cc(NC3CC3)n2)cc1,5.91
22,CCOc1ccccc1CNc1nccc(NCCc2cn(C)c3ccccc23)n1,5.90
23,CN1CCCC1CCNc1ncc2c(-c3ccc(NC(=O)Nc4cc(C(F)(F)F)ccc4F)cc3)nn(C)c2n1 (stereo unspecified),6.47
24,CC(C)(C)c1nn(-c2ccc(Cl)cc2)c2[nH]c(=O)c(CNCc3cccs3)cc12,6.12

row,SMILES,pIC50
1,O=C(Nc1ccccc1Br)c1cn(-c2ccccc2)nc1-c1cccc([N+](=O)[O-])c1,5.88
2,CC1CCC(C(C)C)C(OC(=O)CSc2nnc3c(n2)[nH]c2ccccc23)C1 (stereo unspecified),6.03
3,COC(=O)c1ccc2nc(-c3cc(OC)c(O)c(C(=O)NC4CCN(Cc5ccccc5)CC4)c3)[nH]c2c1,5.93
4,CC(C)CCn1c(Sc2ccc(C#N)c([N+](=O)[O-])c2)nnc1-c1ccc(Cl)cc1,6.06
5,Cc1cc(Cl)ccc1OC(C)C(=O)N1CCc2ccccc21 (stereo unspecified),6.17
6,CN1CCC(NCCS(=O)(=O)c2cccc(Nc3ccc(-c4cccc(F)c4)cn3)c2)CC1,5.87
7,O=S(=O)(c1ccccc1Cl)N1CCCCC(c2ccc(C(F)(F)F)cc2)=N1,6.03
8,CC(=O)Nc1ccc2[nH]cc(C3CCN(CCC4CCN(C(=O)/C=C/c5ccc(Cl)c(Cl)c5)CC4)CC3)c2c1,6.11
9,NC(=NCCCCC1CCCCC1)c1cccc(C(N)=NCCCCC2CCCCC2)n1,6.41
10,Clc1ccc2c(N3CCN(CCN4CCN(c5ccnc6cc(Cl)ccc56)CC4)CC3)ccnc2c1,6.89
11,c1ncc(CCNc2nc(Nc3ccc4c(c3)OCO4)nc(NC3CCCC3)n2)[nH]1,5.94
12,CC(C)CC(=O)NC1CCN(Cc2c(-c3cccs3)nc3ccccc3c2C(=O)N[C@@H](C)C2CCCCC2)CC1,6.09
13,CS(=O)(=O)c1ccc(CCNCc2ccc(-c3ccc(CNC4CCN(Cc5ccccc5)CC4)cc3)nc2)cc1,6.60
14,C=CCCCNCC(NCCCNc1cc(=O)c2ccccc2[nH]1)c1cc(Br)cc(Br)c1 (stereo unspecified),6.05
15,CC(C)c1ccc(NC(=O)c2ccc(C(=O)NC3CCN(Cc4ccsc4)C3)cc2)cc1 (stereo unspecified),5.99
16,NC1CCN(c2nc(NCCCc3ccc(O)cc3)nc(NCc3ccccc3-c3ccccc3)n2)CC1,6.17
17,COc1cc(Nc2nccc(N3CCC(NS(=O)(=O)c4ccc(NC(C)=O)cc4)CC3)n2)cc(OC)c1OC,6.01
18,CCc1cn2c3c(cc(C(=O)N[C@@H](Cc4ccccc4)[C@H](O)CNC4CCCCC4)cc13)N(C)S(=O)(=O)C2,7.05
19,COc1cc(NC(=O)/C=C/c2cccc3cc[nH]c23)ccc1OCCN(C(C)C)C(C)C,6.57
20,CCC(C)NC(=O)CN1CN(c2ccccc2)C2(CCN(C(=O)c3ccc(-c4ccccc4)cc3)CC2)C1=O (stereo unspecified),6.89
21,CC(=O)Oc1c(Cl)c(C)nc(C)c1-c1ccc(Oc2ccc(Cl)cc2)cc1,7.52
22,CC[C@H](NC(=O)c1ccc(NC(=O)OC(C)(C)C)cc1)C(=O)N[C@@H](CO)C(=O)NCCCCc1ccccc1,6.08
23,COc1ccccc1C1CCN(C2CCC(NC(=O)/C=C/c3ccc(C(F)(F)F)cc3F)CC2)CC1 (stereo unspecified),6.00
24,COc1cccc2cc(C(=O)N[C@@H](CC(C)C)C(=O)N[C@H](/C=N/N(C)C(=O)OC(C)(C)C)Cc3ccccc3)oc12,6.59

row,SMILES,pIC50
1,CCCCCCc1cc2cc(-c3nc(-c4ccc(OC)cc4)cs3)c(=O)oc2cc1O,6.09
2,CCCCNCc1ccc(-c2nc(CN(CCCn3ccnc3)C(=O)Nc3ccc(CC)cc3)cs2)cc1,6.08
3,O=C(N[C@@H](Cc1ccccc1)C(=O)NCc1cccc2ccccc12)c1ccc(O)c(-c2ccc(Cl)c(Cl)c2)c1,6.62
4,O=C(NCCc1ccccc1F)c1cc(Br)cc(N2CCN(c3ccncc3)CC2)c1,6.12
5,CN(CCCCCN1CCC(NC(=O)Nc2ccc(Oc3ccccc3)cc2)C1)C(=O)/C=C/c1ccc(Cl)c(Cl)c1 (stereo unspecified),6.38
6,Cc1cc(C=C2SC(=Nc3ccccc3)N(C3CCCC3)C2=O)c(C)n1-c1ccc(Cl)cc1,6.06
7,CC(C)(C)c1ccc2nc(-c3ccc(/C=C/C(=O)NCc4cccc(C(F)(F)F)c4)cc3)[nH]c2c1,6.00
8,C=C[C@H]1CN(CCCCCCC)CC[C@H]1CCNc1ccnc2ccc(OC)cc12,7.22
9,O=C(Cc1c(-c2ccccc2)[nH]c2ccccc12)NC1CCC(CN2CCC(c3c[nH]c4ccccc34)CC2)CC1 (stereo unspecified),6.32
10,COc1cc2c(cc1OC)C(C)(C)CN1Cc3c(c(CO)c(OC)c(OC)c3OC)CC21 (stereo unspecified),6.11
11,CC(Cc1ccc(NC(=O)CCCc2ccccc2)cc1)NCCc1cccc(Cl)c1 (stereo unspecified),6.02
12,Cc1ccccc1Oc1nc2ccccc2nc1SCC(=O)NC(C)C,6.70
13,COc1cc2nc(C)nc(Nc3ccc(Oc4ccccc4)cc3)c2cc1OC,6.14
14,Cc1nc2ccc([N+](=O)[O-])cc2c(=O)n1OCc1ccccc1,6.68
15,Cc1[nH]c(C)c(-c2ccc(Oc3ccc(OC(F)(F)F)cc3)cc2)c(=O)c1I,6.89
16,N#Cc1ccc(N[C@@H](CC2CCCCC2)C(=O)Nc2ccc(-c3ccccc3)cc2)c2ccccc12,6.22
17,N#Cc1ccc(N(CCOC(=O)c2ccccc2)Cc2ccccc2C(F)(F)F)cc1C(F)(F)F,6.04
18,CCOc1ccc(-c2nonc2NC(=O)c2ccc(OC(C)C)cc2)cc1OCC,6.22
19,O=C(CCc1nc2c(cnn2-c2ccccc2)c(=O)[nH]1)NC1CCSc2ccccc21 (stereo unspecified),5.97
20,COc1ccc(O)c(C(=O)c2cc(C#N)c(=O)n(-c3ccc(Oc4ccccc4)cc3)c2)c1,6.13
21,O=C(C=Cc1ccc(Cl)c(Cl)c1)NCCCCCN1CCC(CCNS(=O)(=O)c2ccc(Br)cc2)CC1,5.95
22,Nc1[nH]c2ccccc2c(=O)c1-c1nc2ccccc2s1,6.52
23,NC(=O)N1CCN(Cc2ccc(Br)cc2)CC1,6.21
24,O=c1cc(NCCCNC(CNCCc2ccccc2)c2cc(Br)cc(Br)c2)[nH]c2ccccc12 (stereo unspecified),6.07
